Patent US20260224563A1, “CRYSTALLINE FORMS OF 6-(3-((5-CHLORO-2-METHOXYPYRIDINE)-3-SULFONAMIDO)-2,6-DIFLUOROPHENYL)-N-METHYLIMIDAZO[1,5-A]PYRAZINE-1-CARBOXAMIDE AND METHODS FOR USING THE SAME” (HIBERCELL, INC., priority 2023, published 2026)
Structures can show the parent of a compound that is named as a salt.

Columns and labels:
[1] = Solubility in simulated biological fluid (FaSSGF and FaSSIF) at 37° C., HPLC; pH of filtrate, XRPD of filter cake; assay type: physicochemical; details: for times more soluble than the free acid (Form II): 0.5-hour mark; for pH (0 h) / Concentration / pH (24 h) / XRPD (filter cake, crystal form): 37° C.; for Concentration / pH (24 h) / XRPD (filter cake, crystal form): listed as K salt Form III; for pH (24 h): filtrate; for XRPD (filter cake, crystal form): up to 24 hours
Experimental: (§1) Approximately between 15 mg and 24 mg of sample was suspended in 5 mL or 8 mL of FaSSGF or FaSSIF, respectively. The resulting suspension was shaken at 700 rpm with a QQMSC-100 shaker at 37° C. The suspension was sampled and filtered at certain time intervals, which was achieved by sampling 1000 μL of each suspension which was then filtered and diluted, diluting the resulting filtrate for HPLC analysis to assess solubility. The pH of the filtrate was measured, and the filter cake was analyzed by XRPD.
as §1, with “Approximately” for “Approximately between”, “mg to” for “mg and”, “5” for “5 mL”, “suspension” for “suspension which”, “was” for “was then”
Approximately 15 mg to 24 mg of sample was suspended in 5 or 8 mL of FaSSGF or FaSSIF, respectively. The resulting suspension was shaken at 700 rpm with a QQMSC-100 shaker at 37° C. The suspension was sampled and filtered in certain time interval, which was achieved by sampling 1000 μL of each suspension was filtered and diluted, diluting the resulting filtrate for HPLC analysis to assess solubility. The pH of the filtrate was measured, and the filter cake was analyzed by XRPD.

[2] = Pharmacokinetic study of HC-7366 via oral (PO) administration of different formulations in beagle dogs; assay type: in vivo; details: dog, plasma, 7.5 mg/kg, PO 7.5 mpk, male beagle dogs
Experimental: 10 mL of 0.001 N HCl was used to wash the gavage catheter for each animal.

Row | times more soluble than the free acid (Form II) ([1]; FaSSGF) | pH (0 h) ([1]; FaSSGF) | Concentration ([1]; FaSSGF, 0.5 h) | Concentration ([1]; FaSSGF, 2.0 h) | pH (24 h) ([1]; FaSSGF) | XRPD (filter cake, crystal form) ([1]; FaSSGF) | times more soluble than the free acid (Form II) ([1]; FaSSIF) | pH (0 h) ([1]; FaSSIF) | Concentration ([1]; FaSSIF, 0.25 h) | Concentration ([1]; FaSSIF, 0.5 h) | Concentration ([1]; FaSSIF, 0.75 h) | Concentration ([1]; FaSSIF, 1.0 h) | Concentration ([1]; FaSSIF, 2.0 h) | pH (24 h) ([1]; FaSSIF) | XRPD (filter cake, crystal form) ([1]; FaSSIF) | bioavailability ([2]; in a capsule, n=3) | Tmax [2] | Compound
1 | about 230 times | 1.60 | 46.8 µg/mL | 4.6 µg/mL | 1.66 | Changed | about 100 times | 6.50 | 155 µg/mL | 164 µg/mL | 160 µg/mL | 155 µg/mL | 14.5 µg/mL | 6.83 | Changed | ~50% |  | CNC(=O)c1ncn2cc(-c3c(F)ccc(NS(=O)(=O)c4cc(Cl)cnc4OC)c3F)ncc12 [Potassium salt Form III, 6-(3-((5-chloro-2-methoxypyridine)-3-sulfonamido)-2,6-difluorophenyl)-N-methylimidazo[1,5-a]pyrazine-1-carboxamide]
2 |  |  |  |  |  |  |  |  |  |  |  |  |  |  |  |  | 4 h | CNC(=O)c1ncn2cc(-c3c(F)ccc(NS(=O)(=O)c4cc(Cl)cnc4OC)c3F)ncc12 [HC-7366-K, 6-(3-((5-chloro-2-methoxypyridine)-3-sulfonamido)-2,6-difluorophenyl)-N-methylimidazo[1,5-a]pyrazine-1-carboxamide]
